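Cultured in 96-well plates, cells were exposed to test compound for 48 hours across five concentrations. The concentration for 50% growth inhibition is given as GI50. TGI denotes the concentration required for complete inhibition of growth.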
Legend:
Assay in all cases: NCI tumour cell line growth inhibition, 48 h
786-0 renal = system: 786-0 renal
A498 renal = system: A498 renal
A549 NSCLC = system: A549 NSCLC
ACHN renal = system: ACHN renal
BT-549 breast = system: BT-549 breast
CAKI-1 renal = system: CAKI-1 renal
CCRF-CEM leukemia = system: CCRF-CEM leukemia
COLO 205 colon = system: COLO 205 colon
DU-145 prostate = system: DU-145 prostate
EKVX NSCLC = system: EKVX NSCLC
HCC-2998 colon = system: HCC-2998 colon
HCT-116 colon = system: HCT-116 colon
HCT-15 colon = system: HCT-15 colon
HL-60(TB) leukemia = system: HL-60(TB) leukemia
HOP-62 NSCLC = system: HOP-62 NSCLC
HOP-92 NSCLC = system: HOP-92 NSCLC
HS 578T breast = system: HS 578T breast
HT29 colon = system: HT29 colon
IGROV1 ovarian = system: IGROV1 ovarian
K-562 leukemia = system: K-562 leukemia
KM12 colon = system: KM12 colon
LOX IMVI melanoma = system: LOX IMVI melanoma
M14 melanoma = system: M14 melanoma
MALME-3M melanoma = system: MALME-3M melanoma
MCF7 breast = system: MCF7 breast
MDA-MB-231 breast = system: MDA-MB-231 breast
MDA-MB-435 = system: MDA-MB-435
MOLT-4 leukemia = system: MOLT-4 leukemia
NCI-H226 lung = system: NCI-H226 lung

Q: Which results are given for COc1cccc(COc2cc(-n3cnc4ccccc43)sc2C(N)=O)c1?
A: GI50 (786-0 renal): > 25 µM; TGI (786-0 renal): > 25 µM; GI50 (A498 renal): 0.92 µM; TGI (A498 renal): > 25 µM; GI50 (A549 NSCLC): > 21.7 µM; TGI (A549 NSCLC): > 25 µM; GI50 (ACHN renal): > 25 µM; TGI (ACHN renal): > 25 µM; GI50 (BT-549 breast): > 21 µM; TGI (BT-549 breast): > 25 µM; GI50 (CAKI-1 renal): > 25 µM; TGI (CAKI-1 renal): > 25 µM; GI50 (CCRF-CEM leukemia): 1.15 µM; TGI (CCRF-CEM leukemia): > 25 µM; GI50 (COLO 205 colon): 4.75 µM; TGI (COLO 205 colon): > 25 µM; GI50 (DU-145 prostate): > 10.3 µM; TGI (DU-145 prostate): > 25 µM; GI50 (EKVX NSCLC): > 25 µM; TGI (EKVX NSCLC): > 25 µM; GI50 (HCC-2998 colon): > 25 µM; TGI (HCC-2998 colon): > 25 µM; GI50 (HCT-116 colon): 12.8 µM; TGI (HCT-116 colon): > 25 µM; GI50 (HCT-15 colon): > 25 µM; TGI (HCT-15 colon): > 25 µM; GI50 (HL-60(TB) leukemia): 6.03 µM; TGI (HL-60(TB) leukemia): > 25 µM; GI50 (HOP-62 NSCLC): 5.34 µM; TGI (HOP-62 NSCLC): > 25 µM; GI50 (HOP-92 NSCLC): > 5.9 µM; TGI (HOP-92 NSCLC): > 25 µM; GI50 (HS 578T breast): > 17.7 µM; TGI (HS 578T breast): > 25 µM; GI50 (HT29 colon): 2.03 µM; TGI (HT29 colon): > 25 µM; GI50 (IGROV1 ovarian): > 23.8 µM; TGI (IGROV1 ovarian): > 25 µM; GI50 (K-562 leukemia): > 25 µM; TGI (K-562 leukemia): > 25 µM; GI50 (KM12 colon): 2.42 µM; TGI (KM12 colon): > 25 µM; GI50 (LOX IMVI melanoma): > 25 µM; TGI (LOX IMVI melanoma): > 25 µM; GI50 (M14 melanoma): > 25 µM; TGI (M14 melanoma): > 25 µM; GI50 (MALME-3M melanoma): > 25 µM; TGI (MALME-3M melanoma): > 25 µM; GI50 (MCF7 breast): 1.08 µM; TGI (MCF7 breast): > 25 µM; GI50 (MDA-MB-231 breast): 14.8 µM; TGI (MDA-MB-231 breast): > 25 µM; GI50 (MDA-MB-435): 1.3 µM; TGI (MDA-MB-435): > 25 µM; GI50 (MOLT-4 leukemia): > 14.8 µM; TGI (MOLT-4 leukemia): > 25 µM; GI50 (NCI-H226 lung): > 20.5 µM; TGI (NCI-H226 lung): > 25 µM

Source: PubChem BioAssay (NCI)
